Assay results taken from US12187705B2, “Heteroaryl-triazole and heteroaryl-tetrazole compounds as pesticides” (Bayer Aktiengesellschaft, priority 2018, dated 2025).

Columns and labels:
Format in all cases: in vivo
Spodoptera frugiperda = Spodoptera frugiperda spray test; details: in Zea mays, 168 h
Experimental: Spodoptera frugiperda—Spray Test
(§1) To produce a suitable preparation of active compound, 1 part by weight of active compound is mixed with the stated amount of solvents and is diluted with water, containing an emulsifier concentration of 1000 ppm, to the desired concentration. Further test concentrations are prepared by dilution with emulsifier containing water.
Maize (Zea mays) leaf sections are sprayed with a preparation of the active ingredient of the desired concentration. Once dry, the leaf sections are infested with fall armyworm larvae (Spodoptera frugiperda).
After 7 days mortality in % is determined. 100% means all caterpillars have been killed and 0% means none of the caterpillars have been killed.

Diabrotica balteata = Diabrotica balteata spray test; details: Diabrotica balteata, 168 h; 160 μg/well, wheat seeds, after 7 days; read-out: efficacy (seedlings grown)
In short: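 Wheat seeds germinated 1 day on agar were sprayed with compound diluted in water with 1000 ppm emulsifier, then infested with 10-20 Diabrotica balteata larvae. Efficacy in % scored after 7 days: 100% = seedlings grown as untreated, uninfected control; 0% = no seedlings grown.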

Boophilus microplus = Boophilus microplus injection test; details: Rhipicephalus microplus, 168 h, 20 μg/animal, egg deposition after 7 days, read-out: efficacy (infertile eggs)
Experimental: Boophilus microplus—Injection Test
Solvent: dimethyl sulfoxide
To produce a suitable preparation of active compound, 10 mg of active compound are dissolved in 0.5 ml solvent, and the concentrate is diluted with solvent to the desired concentration.
Five adult engorged female ticks (Boophilus microplus) are injected with 1 μl compound solution into the abdomen. The ticks are transferred into replica plates and incubated in a climate chamber.
After 7 days egg deposition of fertile eggs is monitored. Eggs where fertility is not visible are stored in a climate chamber till hatching after about 42 days. An efficacy of 100% means all eggs are infertile; 0% means all eggs are fertile.

Nezara viridula = Nezara viridula spray test; details: in Hordeum vulgare, 96 h
In short: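 Barley plants infested with stink bug larvae were sprayed with compound diluted in water containing 1000 ppm emulsifier. Mortality (%) was scored after 4 days, 100% meaning all bugs killed.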

Myzus persicae [1] = test: Myzus persicae oral test; details: 120 h
In short: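 Feeding test: compound diluted in water was combined with IPL41 insect medium (33%+15% sugar) under a parafilm seal. A mixed population of green peach aphids fed through the membrane. Mortality (%) was scored after 5 days.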

Ctenocephalides felis [2] = test: Ctenocephalides felis oral test; details: Ctenocephalides felis, in Bos taurus, po, 48 h
In short: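 About 20 adult unfed fleas fed through parafilm on cattle blood containing compound (DMSO concentrate diluted in blood); blood held at 37° C., fleas at room temperature. Mortality in % scored after 2 days (100% = all killed).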

[3] = test system: Anopheles funestus strain FUMOZ-R; test: Anopheles funestus test (ANPHFU surface treatment & contact assay); details: 24 hours after contact, read-out: efficacy (mortality); for mortality at 4 mg/m2: surface concentration 4 mg/m^2, 30 minutes exposure; for mortality at 20 mg/m2: surface concentration 20 mg/m^2, 30 minutes exposure
Experimental: Anopheles funestus Test (ANPHFU Surface Treatment & Contact Assay)
(§2) Solvent: Aceton+2000 ppm rapeseed oil methyl ester (RME)
(§3) In order to produce a sufficient, active ingredient containing solution it is necessary to solve the test-compound in the solvent-mix (Acetone at 2 mg/ml/RME 2000 ppm). This solution is pipetted onto a glazed tile and after evaporation of the Acetone, adult mosquitoes of the species Anopheles funestus strain FUMOZ-R (Hunt et al., Med Vet Entomol. 2005 September; 19(3):271-5) are placed onto the dried surface. The exposure time is 30 minutes.
(§4) Mortality in percent (%) is determined 24 hours after contact to the treated surface. 100% mortality means that all test-insects are dead, whereas 0% means that not a single insect died.

[4] = test system: Culex quinquefasciatus strain P00; test: Culex quinquefasciatus test (CULXFA surface treatment & contact assay); details: 24 hours after contact, read-out: efficacy (mortality); for mortality at 4 mg/m2: surface concentration 4 mg/m^2, 30 minutes exposure; for mortality at 20 mg/m2: surface concentration 20 mg/m^2, 30 minutes exposure
In short: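 Compound dissolved in acetone (2 mg/ml) with 2000 ppm rapeseed oil methyl ester, applied to glazed tile and dried. Adult strain P00 mosquitoes exposed to the surface for 30 minutes. Percent mortality scored 24 hours after contact.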

[5] = test system: Aedes aegypti strain MONHEIM; test: Aedes aegypti test (AEDSAE surface treatment & contact assay); details: 24 hours after contact, read-out: efficacy (mortality); for mortality at 4 mg/m2: surface concentration 4 mg/m^2, 30 minutes exposure; for mortality at 20 mg/m2: surface concentration 20 mg/m^2, 30 minutes exposure
Experimental: Aedes aegypti Test (AEDSAE Surface Treatment & Contact Assay)
as §2
as §3, with “Aedes aegypti” for “Anopheles funestus”, “MONHEIM” for “FUMOZ-R (Hunt et al., Med Vet Entomol. 2005 September; 19(3):271-5)”
as §4

Myzus persicae [6] = test: Myzus persicae spray test; details: in Brassica rapa, foliar, 120 h
Experimental: Myzus persicae—Spray Test
as §1
Chinese cabbage (Brassica pekinensis) leaf disks infected with all instars of the green peach aphid (Myzus persicae), are sprayed with a preparation of the active ingredient of the desired concentration.
After 5 days mortality in % is determined. 100% means all aphids have been killed and 0% means none of the aphids have been killed.

Ctenocephalides felis [7] = test: Ctenocephalides felis in-vitro contact test adult cat flea; details: Ctenocephalides felis; 5 μg/cm^2 (=500 g/ha), after 48 hours; read-out: efficacy (fleas dead or moribund)
In short: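 Compound in acetone was coated on glass tube walls, giving 5 μg/cm^2 at 900 ppm. 5-10 adult cat fleas were held at room temperature for 48 h, then heat-challenged at 45-50° C. Fleas immotile or uncoordinated were scored dead/moribund, expressed as % efficacy.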

[8] = test system: Musca domestica strain WHO-N; test: Musca domestica test (MUSCDO surface treatment & contact assay); details: 24 hours after contact, read-out: efficacy (mortality); for mortality at 20 mg/m2: surface concentration 20 mg/m^2, 30 minutes exposure
Experimental: Musca domestica Test (MUSCDO Surface Treatment & Contact Assay)
as §2
as §3, with “flies” for “mosquitoes”, “Musca domestica” for “Anopheles funestus”, “WHO-N” for “FUMOZ-R (Hunt et al., Med Vet Entomol. 2005 September; 19(3):271-5)”
as §4

Nilaparvata lugens = Nilaparvata lugens spray test; details: Nilaparvata lugens, in Oryza sativa, 96 h
Experimental: Nilaparvata lugens—Spray Test
as §1
Rice plants (Oryza sativa) are sprayed with a preparation of the active ingredient of the desired concentration and the plants are infested with the brown planthopper (Nilaparvata lugens).
After 4 days mortality in % is determined. 100% means all planthoppers have been killed and 0% means none of the planthoppers have been killed.

C[C@@H](NC(=O)c1cc(Cl)cc([S+](C)[O-])c1)c1ncnn1-c1ccc(C#N)cn1 (some centres unmarked) [Example I-070]
mortality at 500 g/ha (Spodoptera frugiperda): 100% | pest or weed control at 160 µg/disc, 160 µg/well (Diabrotica balteata): 100% | pest or weed control at 0.02 mg (Boophilus microplus): 100% | mortality at 500 g/ha (Nezara viridula): 100% | mortality at 4 ppm (Myzus persicae [1]): 100% | mortality at 100 ppm (Ctenocephalides felis [2]): 100% | mortality at 4 mg/m2 [3]: 85 to 100% | mortality at 20 mg/m2 [3]: 85 to 100% | mortality at 4 mg/m2 [4]: 80 to 100% | mortality at 20 mg/m2 [4]: 80 to 100% | mortality at 4 mg/m2 [5]: 80 to 100% | mortality at 20 mg/m2 [5]: 90 to 100% | mortality at 500 g/ha (Myzus persicae [6]): 100% | pest or weed control at 5 µg/cm2, 5 µg/cm2 (Ctenocephalides felis [7]): 100% | mortality at 20 mg/m2 [8]: 80 to 100%

C[C@@H](NC(=O)c1cc(Cl)cc(S(=O)(=O)C(F)(F)F)c1)c1ncnn1-c1cnccn1 [Example I-074]
mortality at 500 g/ha (Spodoptera frugiperda): 100% | pest or weed control at 160 µg/disc, 160 µg/well (Diabrotica balteata): 100% | pest or weed control at 0.02 mg (Boophilus microplus): 100% | mortality at 500 g/ha (Nezara viridula): 100% | mortality at 4 ppm (Myzus persicae [1]): 100% | mortality at 100 ppm (Ctenocephalides felis [2]): 100% | mortality at 20 mg/m2 [4]: 80 to 100% | mortality at 20 mg/m2 [5]: 90 to 100% | mortality at 500 g/ha (Myzus persicae [6]): 90% | pest or weed control at 5 µg/cm2, 5 µg/cm2 (Ctenocephalides felis [7]): 90% | mortality at 20 mg/m2 [8]: 80 to 100%

C[C@@H](NC(=O)c1cc(Cl)cc(S(=O)(=O)C(F)(F)F)c1)c1ncnn1-c1ncc(F)cc1F [Example I-078]
mortality at 500 g/ha (Spodoptera frugiperda): 100% | pest or weed control at 160 µg/disc, 160 µg/well (Diabrotica balteata): 100% | mortality at 500 g/ha (Nezara viridula): 100% | mortality at 20 mg/m2 [3]: 85 to 100% | mortality at 4 mg/m2 [4]: 80 to 100% | mortality at 20 mg/m2 [4]: 80 to 100% | mortality at 4 mg/m2 [5]: 80 to 100% | mortality at 20 mg/m2 [5]: 90 to 100% | mortality at 20 mg/m2 [8]: 80 to 100%

C[C@H](NC(=O)c1cc(Cl)cc(S(C)(=O)=O)c1)c1nc(C(F)(F)F)nn1-c1ncccn1 [Example I-091, 3-chloro-N-{(1S)-1-[1-(2-pyrimidinyl)-3-(trifluoromethyl)-1H-1,2,4-triazol-5-yl]ethyl}-5-(methylsulfonyl)benzamide]
mortality at 500 g/ha (Spodoptera frugiperda): 83% | pest or weed control at 160 µg/disc, 160 µg/well (Diabrotica balteata): 100% | mortality at 500 g/ha (Nezara viridula): 100% | mortality at 4 ppm (Myzus persicae [1]): 100% | mortality at 100 ppm (Ctenocephalides felis [2]): 100% | mortality at 20 mg/m2 [3]: 85 to 100% | mortality at 4 mg/m2 [4]: 80 to 100% | mortality at 20 mg/m2 [4]: 80 to 100% | mortality at 4 mg/m2 [5]: 80 to 100% | mortality at 20 mg/m2 [5]: 90 to 100% | mortality at 500 g/ha (Myzus persicae [6]): 90% | pest or weed control at 5 µg/cm2, 5 µg/cm2 (Ctenocephalides felis [7]): 100%

C[C@H](NC(=O)c1cc(Cl)cc([S+]([O-])CC(F)(F)F)c1)c1ncnn1-c1ncccn1 (stereo partly drawn) [Example I-092, 3-chloro-N-{(1S)-1-[1-(pyrimidin-2-yl)-1H-1,2,4-triazol-5-yl]ethyl}-5-[(2,2,2-trifluoroethyl)sulfinyl]benzamide]
pest or weed control at 160 µg/disc, 160 µg/well (Diabrotica balteata): 100% | mortality at 500 g/ha (Nilaparvata lugens): 100% | mortality at 500 g/ha (Nezara viridula): 100% | mortality at 4 ppm (Myzus persicae [1]): 100% | mortality at 4 mg/m2 [3]: 85 to 100% | mortality at 4 mg/m2 [4]: 80 to 100% | mortality at 20 mg/m2 [4]: 80 to 100% | mortality at 4 mg/m2 [5]: 80 to 100% | mortality at 20 mg/m2 [5]: 90 to 100% | mortality at 500 g/ha (Myzus persicae [6]): 100% | pest or weed control at 5 µg/cm2, 5 µg/cm2 (Ctenocephalides felis [7]): 80%

C[C@@H](NC(=O)c1cc(C(F)(F)F)n(C)n1)c1ncnn1-c1ncccn1 [Example I-100]
mortality at 500 g/ha (Spodoptera frugiperda): 100% | pest or weed control at 160 µg/disc, 160 µg/well (Diabrotica balteata): 100% | mortality at 500 g/ha (Nilaparvata lugens): 100% | mortality at 500 g/ha (Nezara viridula): 100% | mortality at 4 mg/m2 [3]: 85 to 100% | mortality at 20 mg/m2 [3]: 85 to 100% | mortality at 4 mg/m2 [4]: 80 to 100% | mortality at 20 mg/m2 [4]: 80 to 100% | mortality at 4 mg/m2 [5]: 80 to 100% | mortality at 20 mg/m2 [5]: 90 to 100% | mortality at 500 g/ha (Myzus persicae [6]): 90% | mortality at 4 mg/m2 ([8]; surface concentration 4 mg/m^2, 30 minutes exposure): 80 to 100% | mortality at 20 mg/m2 [8]: 80 to 100%
